Key:
[1] = system: Bifidobacterium infantis strain PB-STR-093; assay: Antibiotic susceptibility (MIC) of isolated strains, EFSA standards; type: cell-based; conditions: observed value
Protocol: In alternative embodiments the complete genome sequence of each organism is screened to ensure it contains no genes or pathogenicity island gene clusters encoding known virulence factors, toxins, or antibiotic resistance functions, using publicly available databases such as DBETH55 (for example, see Chakraborty A, et al. (2012) Nucleic Acids Res. 40:615-620) and VFDB56 (Chen L, et al. (2005) Nucleic Acids Res. 33:325-328). Each organism is evaluated by standard antibiotic sensitivity profile techniques such as broth microdilution susceptibility panels or plate-based methods such as disk diffusion method and antimicrobial gradient method (James H. Jorgensen and Mary Jane Ferraro 2009 Clinical Infectious Diseases 49:1749-1755). Such tests determine the minimal inhibitory concentration (MIC) of an antibiotic on microbial growth. Antibiotics evaluated include but are not limited to amoxicillin, amoxicillin/clavulanic acid, carbapenem, methicillin, ampicillin, gentamicin, metronidazole, vancomycin, and neomycin. MIC determinations of novel microbes are compared to published values for both sensitive and resistant related strains to make an assessment on sensitivity (CLSI Guideline M45: Methods for Antimicrobial Dilution and Disk Susceptibility Testing of Infrequently Isolated or Fastidious Bacteria. Wayne, PA; 2015) to determine possible relative increases in antibiotic resistance.

[2] = system: Bifidobacterium infantis strain PB-STR-093; conditions: expected value based on the EFSA standards; cited from earlier work
[3] = system: simulated gut environment; assay: Simulated gut environment: community composition after introduction of bacteria and/or prebiotics (whole genome sequencing); type: cell-based, human; conditions: B. infantis combined with lacto-N-tetraose (LNT)
Protocol: The ability of a bacterial addition (representing a probiotic application) to shift the composition of the gut environment was evaluated through the introduction of Bifidobacterium infantis isolate PB-STR-093.
Fifteen different combinations were evaluated covering Bifidobacterium infantis, Bifidobacterium longum, Bifidobacterium breve, and Bifidobacterium bifidum (shown in table 31, where the numerical value for each combination represents the ratio of the microbe in the combination). […] Compositions were also evaluated for their ability to reduce pathogenic species, as well as their metabolic output.

[4] = system: Escherichia coli; assay: Simulated gut environment: levels of potentially pathogenic bacteria; type: cell-based; conditions: LNT as carbon source together with B. infantis
Protocol: (§1) To understand the applicability of in vitro observations to the human gut, strains are evaluated in the context of a simulated gut environment. These gut environments are produced with minimal media and seeded with FMT aliquots (Example 2) to reproduce an environment that represents the gut. In these environments, the introduction of prebiotics (in the form of carbon sources, nitrogen sources, and other small molecules) and the introduction of bacteria can be used to shift the community composition, metabolic output, and immunological impact of the gut environments. This allows prebiotic, probiotic, and synbiotic (prebiotic and, probiotic) combinations to be rapidly evaluated to confirm or reject observations determined in simpler systems such as single strain microbial cultures. In subsequent embodiments, machine learning will be used to further reduce the space that must be explored experimentally.

[5] = system: Streptococcus vestibularis; assay: as above; type: cell-based; conditions: LNT as carbon source together with B. infantis
Protocol: as §1

[6] = Growth (OD600) of isolated microbial strains on medium with different carbon sources; type: cell-based
Protocol: The growth of isolated strains is evaluated to determine their ability to consume carbon sources and produce specific metabolites. Strains are grown in a minimal media (for example 2 grams (2 ml fine) peptone water (peptone, 10 g/L sodium chloride, 5 g/L), 2 grams yeast extract, 2 grams NaHCO3, 0.1 g NaCl, 0.04 g K2HPO4, 0.04 g KH2PO4, 0.01 g MgSO4·7H2O, 0.01 g CaCl2·6H2O, 2 ml Tween 80, 10 g carbohydrate of choice, 10 μl vitamin K, 0.5 g cysteine, 0.5 g bile salts) that affords control over carbon source. Examples of carbon sources evaluated (independently or in combination) include but are not limited to glucose, lactose, galactose, fructose, xylose, galactooligosaccharides, fructooligosaccharides, xylooligosaccharides, lacto-N-tetraose, lacto-N-neotetraose, 2′-fucosyllactose, 3-fucosyllactose, 3′-sialyllactose, and 6′-sialyllactose. Growth is evaluated by determination of the OD600, which can be performed either on individual samples with a cuvette or tube-based spectrometer (for example the CO 75000™ colorimeter) or on multiple samples in a plate-based format using a plate reader (for example CYTATION 3™). In both cases, values are normalized based on signals from media alone.
Select bacteria were evaluated for their ability to consume different carbon sources to aid in selection of live biotherapeutic (probiotic) bacteria and combinations, mixes and consortia of bacteria as provided herein, and prebiotic combinations (see Table 6) used in compositions and methods as provided herein;

Compound: CC1(C)S[C@@H]2[C@H](NC(=O)[C@H](N)c3ccccc3)C(=O)N2[C@H]1C(=O)O [Ampicillin]
- Observed Antibiotic MIC [1]: 2 mg/L
- Expected Antibiotic MIC [2]: 2 mg/L

Compound: O=C(N[C@H](CO)[C@H](O)c1ccc([N+](=O)[O-])cc1)C(Cl)Cl [Chloramphenicol]
- Observed Antibiotic MIC [1]: 4 mg/L
- Expected Antibiotic MIC [2]: 4 mg/L

Compound: CCC[C@@H]1C[C@@H](C(=O)N[C@@H]([C@H]2O[C@H](SC)[C@H](O)[C@@H](O)[C@H]2O)[C@H](C)Cl)N(C)C1 [Clindamycin]
- Observed Antibiotic MIC [1]: 0.125 mg/L

Compound: CC[C@H]1OC(=O)[C@H](C)[C@@H](O[C@H]2C[C@@](C)(OC)[C@@H](O)[C@H](C)O2)[C@H](C)[C@@H](O[C@@H]2O[C@H](C)C[C@H](N(C)C)[C@H]2O)[C@](C)(O)C[C@@H](C)C(=O)[C@H](C)[C@@H](O)[C@]1(C)O [Erythromycin]
- Observed Antibiotic MIC [1]: 1 mg/L
- Expected Antibiotic MIC [2]: 1 mg/L

Compound: CC(=O)N[C@H]1[C@H](O[C@H]2[C@@H](O)[C@@H](CO)O[C@@H](O[C@H]3[C@H](O)[C@@H](O)C(O)O[C@@H]3CO)[C@@H]2O)O[C@H](CO)[C@@H](O)[C@@H]1O[C@@H]1O[C@H](CO)[C@H](O)[C@H](O)[C@H]1O (some centres unmarked) [LNT, lacto-N-tetraose]
- growth, engraftment and abundance of Bifidobacterium infantis in the sample [3]: further boosts the abundance of Bifidobacterium infantis
- level of Escherichia coli in simulated gut environment [4]: further reduces the presence of these bacteria
- level of Streptococcus vestibularis in simulated gut environment [5]: further reduces the presence of these bacteria

Compound: [H]/N=C(/N)N[C@H]1[C@H](O)[C@@H](O)[C@H](O[C@@H]2O[C@@H](C)[C@](O)(C=O)[C@H]2O[C@@H]2O[C@@H](CO)[C@H](O)[C@@H](O)[C@@H]2NC)[C@@H](N/C(N)=N\[H])[C@@H]1O [Streptomycin]
- Observed Antibiotic MIC [1]: 32 mg/L
- Expected Antibiotic MIC [2]: 128 mg/L

Compound: CN(C)[C@@H]1C(O)=C(C(N)=O)C(=O)[C@@]2(O)C(O)=C3C(=O)c4c(O)cccc4[C@@](C)(O)[C@H]3C[C@@H]12 [Tetracycline]
- Observed Antibiotic MIC [1]: 4 mg/L

Compound: CN[C@H](CC(C)C)C(=O)N[C@H]1C(=O)N[C@@H](CC(N)=O)C(=O)N[C@H]2C(=O)N[C@H]3C(=O)N[C@H](C(=O)N[C@H](C(=O)O)c4cc(O)cc(O)c4-c4cc3ccc4O)[C@H](O)c3ccc(c(Cl)c3)Oc3cc2cc(c3O[C@@H]2O[C@H](CO)[C@@H](O)[C@H](O)[C@H]2O[C@H]2C[C@](C)(N)[C@H](O)[C@H](C)O2)Oc2ccc(cc2Cl)[C@H]1O [Vancomycin]
- Observed Antibiotic MIC [1]: 0.5 mg/L
- Expected Antibiotic MIC [2]: 2 mg/L

Compound: Bacteroides fragilis
- OD(600) after 24 hours growth ([6]; carbon source 2′-FL): 0.261
- OD(600) after 24 hours growth ([6]; carbon source 3′-SL): 0.457
- OD(600) after 24 hours growth ([6]; carbon source FOS): 0.433
- OD(600) after 24 hours growth ([6]; carbon source GOS): 0.325
- OD(600) after 24 hours growth ([6]; carbon source Glucose): 0.353
- OD(600) after 24 hours growth ([6]; carbon source LNT): 0.337
- OD(600) after 24 hours growth ([6]; carbon source Mucin): 0.186
- OD(600) after 24 hours growth ([6]; carbon source XOS): 0.359
- OD(600) after 24 hours growth ([6]; medium with No Carbohydrate): 0.073

Compound: Gentamicin
- Observed Antibiotic MIC [1]: 64 mg/L
- Expected Antibiotic MIC [2]: 64 mg/L

— patent publication US20260231998A1, “COMPOSITIONS FOR MODULATING GUT MICROFLORA POPULATIONS, TREATMENT OF DYSBIOSIS AND DISEASE PREVENTION, AND METHODS FOR MAKING AND USING SAME” (PERSEPHONE BIOSCIENCES, INC., priority 2023, published 2026)
